In article PMC10221837, “Alanine Substitution to Determine the Effect of LR5 and YR6 Rice Peptide Structure on Antioxidant and Anti-Inflammatory Activity” (Nutrients, 2023):
Ends that are not written are not given here.

System: RAW264.7 cells
Assay: MTT proliferation and cytotoxicity of peptides (stimulating index)
Assay type: cell-based, mouse
Details: RAW264.7, MTT, 24 h, across 12.5, 25, 50 and 100 μg/mL peptide
Method: The MTT colorimetry method was used to determine the effects of original rice peptides and replacement peptides on RAW264.7 cell proliferation, and the toxic effects of these peptides on the cells. RAW264.7 cells were cultured in DMEM high glucose medium containing 10% (v/v) fetal bovine serum (FBS) and 1% (v/v) of penicillin–streptomycin solution (10,000 U/mL of penicillin and 10,000 U/mL of streptomycin). The cells were cultured at 37 °C in a humidified incubator (Boxun Co., Ltd., Shanghai, China) with 5% (v/v) CO2, with sub-culturing every three days.
Briefly, pre-cultured, logarithmic phase cells were inoculated into 96-well plates (with six double wells for each group), at a cell density of 6.0 × 10^4 cells/mL. Then, 200 μL of cell suspension was added into the wells and incubated for 6 h to make the cells adhere to the well wall. After that, different concentrations of samples (12.5, 25, 50, and 100 μg/mL) were added to four of the six corresponding wells for each group. Sterile water and immunoglobulin G (IgG) were used as the blank and positive control groups, respectively. The samples were subsequently incubated in a humidified incubator with 5% (v/v) CO2 at 37 °C for 24 h, and then 20 μL of MTT solution (5 mg/mL) was added to each well and incubated for a further 4 h. Next, the culture medium supernatant was gently removed from the wells, and 150 μL of dimethyl sulfoxide (DMSO) solution was added into the wells, which were shaken for 10 min at room temperature to ensure that the […] was fully dissolved. Then, the solution was immediately detected at 490 nm. The cytotoxicity was evaluated based on the following stimulating index (SI) value Formula (3):(3) SI=OD1/OD0 where OD1 is the absorbance value at 490 nm of the sample group or the IgG group, and OD0 is the absorbance value at 490 nm of the blank group.

Row | Substance | SI value (stimulating index, OD sample/OD blank)
1 | AGLYPR [AGR6] | greater than 1.0
2 | AHKFR [AR5] | greater than 1.0
3 | LHKAR [LAR5] | greater than 1.0
4 | LHKFR [LR5] | greater than 1.0
5 | YGAYPR [YAR6] | greater than 1.0
6 | YGLAPR [YLR6] | greater than 1.0
7 | YGLYAR [YGR6] | greater than 1.0
8 | YGLYPR [YR6] | greater than 1.0
